Experimental data published in patent US20250228971A1, “DESIGN AND CONSTRUCTION OF EVOLUTIONARY-GUIDED "SELECTION GENE DRIVE" THERAPY” (THE PENN STATE RESEARCH FOUNDATION, priority 2022, published 2025).

Columns and labels:
[1] = system: mixed-population EGFR+ BaF3 tumors; assay: Gene drive in BaF3 tumors in vivo; design: species or system mice; settings: tumors lacking gene drive cells, daily erlotinib
[2] = system: Early passage wild-type PC9 cells; assay: Early passage wild-type PC9 culture in EGFR inhibitors; assay type: cell-based; settings: even at high concentrations
[3] = system: EGFR L858R transformed cell population; assay: Prototype dual-switch selection drive in vitro (FIG. 3); assay type: cell-based
Description: The dual-switch drive engineers the evolutionary dynamics of an EGFR L858R transformed cell population in vitro. […] Rimiducid is removed to inactivate switch 1 driven drug resistance in the gene drive cell.

[4] = system: CD19+ and CD19- PC9 cells; assay: Immune bystander assay (vCD19); assay type: cell-based, human; settings: co-culture with primary T cells and blinatumomab
Experimental: Immune bystander assays (vCD19). PBMCs were sourced from Astarte and T cells were expanded using CD3/CD28 dynabeads (1:100 bead: cell ratio). For the immune bystander experiments, CD19+ and CD19-PC9 cells were seeded 1:1 in 24 wells plates at 60k/well. After 24 hours, 1 ng/mL blinatumomab was added to all wells. At the same time, freshly-thawed T cells were added at the appropriate concentration. Each target: effector ratio was conducted in triplicate. After 48 hours, the supernatant and resuspended adherent cells were pooled and analyzed according to the following staining protocol. Cells were spun down (750 g for 3 min) and resuspended in 50 uL Fc block buffer. After a 10 minute incubation, 100 uL antibody mixture (anti-CD3/FITC and anti-CD19/APC) was added. The cell suspension was incubated at 4C for 20 minutes. After three washes in PBS with 1% BSA, the cell suspension was analyzed by flow cytometry.

[5] = system: mixed-population PC9 tumors; assay: Gene drive in PC9 tumors in vivo
Experimental: To test this, mixtures of 50% gene drive and 50% resistant PC9 cells were generated to reflect a possible population structure at the beginning of Switch 2. These pooled populations were grafted in mice. The mice were then treated with Switch 2 drugs (osimertinib and 5-FC) with or without concurrent Switch 1 engagement (dimerizer).
Finally, these findings were performed in a full-term gene drive experiment in vivo.

[6] = system: S1 vEGFRerl BaF3 cells; assay: BaF3 dimerizer-dependence assay (growth rate); assay type: cell-based, murine; settings: absence of IL-3; range of dimerizer concentrations
Experimental: BaF3 dimerizer-dependence assays. S1 vEGFRerl BaF3s were seeded in 12-well plates at 100k/well with dimerizer (AP20187, Takara) in triplicate. Cell counts were measured on a hemocytometer every day for four days, and an exponential curve was fit to the data to estimate growth rates.

[7] = system: S1 vEGFRerl BaF3 tumors; assay: Engineered Switch 1 BaF3 in vivo model (dimerizer-dependence); design: species or system mice; settings: once-daily dimerizer, range of doses, 12 days
Experimental: Engineered Switch 1 BaF3 in vivo models. All animal experiments were conducted under a protocol approved by the Institutional Animal Care and Use Committee. In the dimerizer-dependence in vivo experiment, S1 vEGFRerl BaF3 cells were subcutaneously grafted on both flanks (3.5M/flank) of NOD-SCID mice (Jackson Labs). Mice were randomized into four arms (0, 0.1, 1, and 10 mg/kg dimerizer) of 3 mice each. Mice received 100 uL dimerizer or vehicle control (2% Tween in PBS) once daily via intraperitoneal injection. Tumor volumes were measured with calipers following 12 days of treatment.

[8] = system: phospho-EGFR and phospho-ERK; assay: Immunoblotting of EGFR/MAPK signaling in PC9 cells; assay type: cell-based, human; settings: erlotinib-treated S1 vEGFRerl PC9 cells, dimerizer added
[9] = system: S1 vEGFRerl EGFR+ NSCLC PC9 cells; assay: Erlotinib dose response in Switch 1 PC9 cells; assay type: cell-based, human; settings: erlotinib with or without dimerizer
Experimental: Drug dose response assays. In general, all 1C50 measurements were conducted similarly. Cells were seeded in 96-well plates at 3k/well triplicate. Adherent cells were given 24 hours before the addition of drug. Cell viability was measured three days after drug treatment using CellTiter-Glo 2.0 (Promega) and luminescence values were normalized to vehicle control conditions.

[10] = system: PC9 cells transduced with EGFR variant library; assay type: cell-based, human
[11] = system: CRISPRko PC9 population; assay type: cell-based, human
[12] = system: pooled sensitive, resistant and immune gene drive PC9 cells; assay: Immune gene drive growth tracking in PC9 mixed populations; assay type: cell-based, human; settings: lacking gene drive cells
[13] = system: RET+ thyroid carcinoma TPC1 cells; assay: RET gene drive growth tracking in TPC1 mixed populations; assay type: cell-based, human; settings: absence of gene drive cells, pralsetinib
Experimental: Gene drive growth tracking. Populations of sensitive, mCherry+ resistant, and GFP+ gene drive cells were mixed together. Except where otherwise noted, mixed populations consisted of 0.5% resistant cells and 5% gene drive cells. Cells were seeded in 24-well plates (1.5M/well for BaF3s and 50k/well for adherent cells) in triplicate, with the exception of the gene-drive titer experiment where 3M/well BaF3s were seeded in 6-well plates in order to maintain sufficient cell numbers for low spike-in conditions. […] For Switch 2 conditions, 500 μM 5-FC replaced dimerizer in the above formulations.
Cell counts were measured every other day. For counts of adherent cells, wells were washed with PBS, trypsinized, and then resuspended in RPMI. Cell suspensions were transferred to microcentrifuge tubes, vortexed, and a small aliquot (6%) was analyzed by flow cytometry (BD Accuri) to get subpopulation cell counts. The remaining cells were spun down (1k g for 5 min), the supernatant was aspirated, and the cell pellet was resuspended in fresh RPMI and seeded onto a new plate. Fresh drug was added immediately. In general, Switch 2 treatment began when the gene drive population exceeded 60% of the day 0 cell counts. Cells were monitored for 2-3 weeks after apparent eradication to ensure that no remaining cells grew back.

[14] = system: PC9 cell line; assay: Switch 2 sensitivity of cancer cell lines (PC9); assay type: cell-based
Description: (§1) Personalize switch 2 designs for different NSCLC tumors. Quantitative models (FIG. 5) have identified the extent of switch 2 bystander driven killing as a key factor in gene drive success. This effect is larger in from spatial systems (2D/3D) (FIG. 10). Pharmacologically, the toxin responsible for the bystander effect must be diffusible and have a half-life on the order of hours to be evolutionarily useful. Prototypes used here meet these transport constraints, but some cancer cell types display differential biological sensitivity to distinct switch 2 metabolites. […] Cell and organoid type specificity in Switch 2 designs is assessed in a larger number of genetically defined NSCLC cell line (FIGS. 8 and 10).

[15] = system: mixed wild-type and S2 vCyD BaF3 cells; assay: Enzyme-prodrug bystander assay (vCyD, BaF3); assay type: cell-based, murine; settings: 1 mM 5-FC
Experimental: Enzyme-prodrug bystander assays (vCyD and vNfsA). To evaluate the S2 vCyD system, populations of wild-type and cytosine deaminase-expressing BaF3 cells were mixed at defined ratios and seeded at 30k/well in 96-well plates in triplicate, and 1 mM 5-FC was added. Cell viability was measured after 48 hours using CellTiter-Glo and normalized to untreated controls. Similarly, wild-type and S1vEGFRosi-S2vCyD PC9 cells were mixed, seeded at 20k/well, and treated with 1 mM 5-FC.

[16] = system: EGFR+ BaF3 tumors expressing S2 vCyD; assay: In vivo cytosine deaminase activity; design: species or system mice; settings: daily dosing of 5-FC
Experimental: In vivo cytosine deaminase activity. Mice were randomized into three arms (five mice/arm).
Tumors were allowed to grow for 12 days, and then once-daily treatment was initiated. The wild-type arm and one of the S2 vCyD arms received 800 uL 500 mg/kg 5-FC via ip injection. The second S2 vCyD arm received 800 uL vehicle control (sterile PBS). Tumor volumes were measured every other day.

[17] = system: RET fusion driven cancer cell line; assay: Switch 2 sensitivity of cancer cell lines (RET line); assay type: cell-based
Description: as §1

[18] = in vivo; cited from earlier work

C#Cc1cccc(Nc2ncnc3cc(OCCOC)c(OCCOC)cc23)c1 [erlotinib]
tumor dynamics [1]: initially regressed and then relapsed
population response [2]: initial regression followed by rapid outgrowth
effect on sensitive EGFR-L858R+ transformed cells [3]: killed

blinatumomab: bispecific CD3/CD19 T cell engager
effect on S2 vCD19 (antigen-positive) cells [4]: targeted by the T cells
effect on wild-type, antigen-negative cells (immune bystander activity) [4]: affected as well

CC[C@H](C(=O)N1CCCC[C@H]1C(=O)O[C@H](CCc1ccc(OC)c(OC)c1)c1cccc(OCC(=O)NCC(CNC(=O)COc2cccc([C@@H](CCc3ccc(OC)c(OC)c3)OC(=O)[C@@H]3CCCCN3C(=O)[C@@H](CC)c3cc(OC)c(OC)c(OC)c3)c2)CN(C)C)c1)c1cc(OC)c(OC)c(OC)c1 [dimerizer]
time to progression ([5]; 50% gene drive/50% resistant, osimertinib and 5-FC with temporary dimerizer vs without): exhibited a longer time to progression
growth of S1 vEGFRerl BaF3 cells [6]: Stimulated growth
tumor growth [7]: stimulated tumor growth
MAPK signaling (western blot) [8]: rescues MAPK signaling
inducible drug resistance phenotype [9]: causes inducible drug resistance

C=CC(=O)Nc1cc(Nc2nccc(-c3cn(C)c4ccccc34)n2)c(OC)cc1N(C)CCN(C)C [osimertinib]
tumor response ([5]; mouse, in vivo): eventually became refractory to osimertinib treatment
population response [2]: initial regression followed by rapid outgrowth
time of treatment to osimertinib resistance [10]: 2-3 weeks
population dynamics [11]: initial decrease in population size, followed by the outgrowth of resistance
outcome of mixed population [12]: Resistance emerged

CO[C@]1(C(=O)N[C@@H](C)c2ccc(-n3cc(F)cn3)nc2)CC[C@H](c2nc(C)cc(Nc3cc(C)[nH]n3)n2)CC1 [pralsetinib]
outcome of mixed population [13]: selected for pre-existing G810R resistance

Nc1nc(=O)[nH]cc1F [5-FC]
sensitivity to cytosine deaminase>5-FC pair [14]: more modestly sensitive
killing in mixed cultures (bystander effect) [15]: significantly higher killing than expected
tumor response [16]: rapid tumor regression
effect on resistant population when switch 2 is induced ([3]; 5-FC added, rimiducid removed, erlotinib maintained): kills the resistant population
sensitivity to cytosine deaminase->5-FC pair [17]: highly sensitive

CC[C@H](C(=O)N1CCCC[C@H]1C(=O)O[C@H](CCc1ccc(OC)c(OC)c1)c1cccc(OCC(=O)NCCNC(=O)COc2cccc([C@@H](CCc3ccc(OC)c(OC)c3)OC(=O)[C@@H]3CCCCN3C(=O)[C@@H](CC)c3cc(OC)c(OC)c(OC)c3)c2)c1)c1cc(OC)c(OC)c(OC)c1 [rimiducid]
clinical exposure [18]: 0.1 to 1000 nM
effect of rimiducid-induced gene drive population on pre-existing resistance ([3]; switch 1, erlotinib maintained): inhibits the growth of pre-existing resistance
